What was measured:
[1] = test system: pentagastrin-stimulated gastric acid secretion; assay: Test on inhibition of pentagastrin-stimulated gastric acid secretion; assay type: in vivo, rat; conditions: SD rats, 0.03 mg/kg intraduodenal, acid output 1 to 4 hours after administration, pentagastrin 15 μg/kg/hr
Protocol: Test on Inhibition of Pentagastrin-stimulated Gastric Acid Secretion
Male Sprague-Dawley (SD)-strain rats were used. Under anesthesia with ether, each rat was subjected to the operation for pylorus ligation and placement of a duodenal catheter and gastric fistula. After completion of the operation, each rat was held in a Bollman-type cage and constantly infused with 15 μg/kg/hr of pentagastrin through the tail vein. Test compounds were suspended in a 0.5% sodium carboxymethylcellulose solution (which will hereinafter be called “vehicle”). Administration of the vehicle or test compound was carried out through the intraduodenal catheter 1 hour after the beginning of pentagastrin infusion. Acidity of the collected gastric juice was measured by an automatic titrator. Acid output was determined by multiplying the volume of gastric juice by its acidity. Inhibition of acid output for 3 hours from 1 to 4 hours after administration of the test compound was calculated by the following equation.
Inhibition (%)=(mean acid output of vehicle administered group−mean acid output of compound group)/mean acid output of vehicle administered group×100

[2] = Test on hygroscopicity under high humidity conditions (2), 0.1 g sample; assay type: physicochemical
Protocol: (§1) Test 3 (Test on Hygroscopicity under High Humidity Conditions)
(§2) (2) A saturated aqueous solution of potassium sulfate was charged in a desiccator and was allowed to stand for at least one day in a temperature controlled room set at 25° C. The sample (0.1 g) was stored and weighed. Hygroscopicity was measured by its weight change. The relative humidity at that time was 97.3% RH.

[3] = Test on hygroscopicity under high humidity conditions (1), 0.5 g sample; assay type: physicochemical
Protocol: as §1
as §2, with “(1)” for “(2)”, “(0.5” for “(0.1”

CCK-B receptor = target: T1, CCK-B receptor (Cavia porcellus, UniProt H0VZC5); assay: Binding test to CCK-B receptor ([3H]CCK-8, cerebral cortex membranes); set-up: species or system guinea pig; conditions: inhibition of specific binding of 1.0 nM [3H]CCK-8, 25° C., 2 hours
T1 sequence (H0VZC5 1-426): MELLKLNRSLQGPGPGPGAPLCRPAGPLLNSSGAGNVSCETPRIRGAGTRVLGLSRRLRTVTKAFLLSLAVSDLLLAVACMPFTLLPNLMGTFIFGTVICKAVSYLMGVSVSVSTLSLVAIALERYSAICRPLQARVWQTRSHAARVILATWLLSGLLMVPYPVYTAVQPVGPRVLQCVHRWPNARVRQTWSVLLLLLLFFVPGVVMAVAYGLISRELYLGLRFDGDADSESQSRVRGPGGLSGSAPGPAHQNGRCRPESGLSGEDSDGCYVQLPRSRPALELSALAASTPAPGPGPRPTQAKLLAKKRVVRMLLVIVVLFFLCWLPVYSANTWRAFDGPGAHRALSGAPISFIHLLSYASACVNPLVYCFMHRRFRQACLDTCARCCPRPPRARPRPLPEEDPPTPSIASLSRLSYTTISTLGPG
Protocol: Binding Test to CCK-B Receptor
The cerebral cortex excised from a Hartley-strain male guinea pig was homogenized in 50 times the amount of a 50 mM Tris-HCl buffer (pH 7.4), followed by centrifugal separation at 50000×g for 10 minutes. Addition of the same amount of the same buffer to the precipitate thus obtained and centrifugation were repeated 2 times. The final precipitate was homogenized in a 10 mM HEPES buffer (pH 6.5) containing 5 mM magnesium chloride, 1 mM EGTA, 0.25 mg/ml bacitracin and 130 mM sodium chloride, and used as the receptor preparation.
Binding assay was conducted by adding, to 50 μl of a test compound solution, 50 μl of a [^3H]CCK-8 solution having the final concentration of 1.0 nM and 900 μl of the receptor preparation (protein content: 800 μg/tube) and reacting them at 25° C. for 2 hours. After completion of the reaction, the mixture was suction filtrated through a Whatman GF/B filter treated in advance with 0.1% BSA. Rightly after filtration, the filter was washed four times, each with 3 ml of ice-cold 50 mM Tris-HCl buffer (pH 7.4). After a scintillator was added to the filter and the resulting filter was then allowed to stand for a day, radioactivity on the filter was measured by a liquid scintillation counter. The binding of [^3H]CCK-8 in the presence of 1 μM CCK-8 when the test compound was not added was defined as non-specific binding. […]

Compound: CC(C)(C)C(=O)CN1C(=O)[C@H](NC(=O)Nc2cccc(C(C)(C)C(=O)O)c2)CN(C2CCCCC2)c2ccccc21 [Compound of Example 4 in the free form, (R)-(−)-2-[3-[3-(1-tert-butylcarbonylmethyl-2-oxo-5-cyclohexyl-1,3,4,5-tetrahydro-2H-1,5-benzodiazepin-3-yl)ureido]phenyl]-2-methylpropionic acid, reference compound]
- Inhibition of acid output (%) ([1]; Table 2): 13.7%

Compound: calcium (R)-(−)-2-[3-[3-(1-tert-butylcarbonylmethyl-2-oxo-5-cyclohexyl-1,3,4,5-tetrahydro-2H-1,5-benzodiazepin-3-yl)ureido]phenyl]-2-methylpropionate [Compound of Example 4 (Ca salt)]
- Inhibition of acid output (%) ([1]; Table 2): 46.1%
- Hygroscopicity compared with the corresponding Na salt ([2]; 25° C., 97.3% RH, versus Compound of Example 5 in WO99/64403): lower hygroscopicity
- Weight change (%) when stored at 25° C. and 97.3% RH ([2]; storage days 0): 0%
- Weight change (%) when stored at 25° C. and 97.3% RH ([2]; storage days 2): 8.15%
- Weight change (%) when stored at 25° C. and 97.3% RH ([2]; storage days 4): 7.87%
- Weight change (%) when stored at 25° C. and 97.3% RH ([2]; storage days 7): 8.38%
- Weight change (%) when stored at 25° C. and 97.3% RH ([2]; storage days 9): 9.07%
- Weight change (%) when stored at 25° C. and 97.3% RH ([2]; storage days 11): 8.14%
- Weight change (%) when stored at 25° C. and 97.3% RH ([2]; storage days 18): 8.51%
- Weight change (%) when stored at 25° C. and 97.3% RH ([2]; storage days 30): 8.23%

Compound: CC(C)(C)C(=O)CN1C(=O)[C@H](NC(=O)Nc2cccc(C(=O)[O-])c2)CN(C2CCCCC2)c2ccccc21.CC(C)(C)C(=O)CN1C(=O)[C@H](NC(=O)Nc2cccc(C(=O)[O-])c2)CN(C2CCCCC2)c2ccccc21.[Ca+2] [Compound of Example 1 (Ca salt), calcium (R)-(−)-3-[3-(1-tert-butylcarbonylmethyl-2-oxo-5-cyclohexyl-1,3,4,5-tetrahydro-2H-1,5-benzodiazepin-3-yl)ureido]benzoate]
- Hygroscopicity compared with the corresponding Na salt ([3]; 25° C., 97.3% RH, versus Na salt of Compound of Example 143 in WO98/25911): lower hygroscopicity
- Weight change (%) when stored at 25° C. and 97.3% RH ([3]; storage time 0 day): 0%
- Weight change (%) when stored at 25° C. and 97.3% RH ([3]; storage time 1 day): 4.61%
- Weight change (%) when stored at 25° C. and 97.3% RH ([3]; storage time 2 days): 5.00%
- Weight change (%) when stored at 25° C. and 97.3% RH ([3]; storage time 3 days): 4.94%
- Weight change (%) when stored at 25° C. and 97.3% RH ([3]; storage time 4 days): 4.97%
- Weight change (%) when stored at 25° C. and 97.3% RH ([3]; storage time 10 days): 5.43%
- Weight change (%) when stored at 25° C. and 97.3% RH ([3]; storage time 14 days): 5.41%
- IC50 (CCK-B receptor): 1.68 nM
- Inhibition of acid output (%) [1]: 42.3%

Compound: CC(C)(C)C(=O)CN1C(=O)[C@H](NC(=O)Nc2cccc(C(=O)O)c2)CN(C2CCCCC2)c2ccccc21 [Compound of Example 1 in the free form, (R)-(−)-3-[3-(1-tert-butylcarbonylmethyl-2-oxo-5-cyclohexyl-1,3,4,5-tetrahydro-2H-1,5-benzodiazepin-3-yl)ureido]benzoic acid, reference compound]
- IC50 (CCK-B receptor): 1.45 nM
- Inhibition of acid output (%) [1]: 4.8%
